Where two headings read alike, the source gives them in different places. Where a SMILES comes first, the peptide text is derived from it. Bridges are numbered along the chain shown (N, C = ends). [ ]: non-standard residue; d: D form. ξ: configuration not given here. Trp(1-CH2COOH) = N[C@@H](Cc1cn(CC(=O)O)c2ccccc12)C(=O)O; Phe(3,4,5-F3) = N[C@@H](Cc1cc(F)c(F)c(F)c1)C(=O)O; NMePhe(4-F) = CN[C@@H](Cc1ccc(F)cc1)C(=O)O; Phe(4-F) = N[C@@H](Cc1ccc(F)cc1)C(=O)O; Bta = N[C@@H](Cc1csc2ccccc12)C(=O)O; Hyp = O=C(O)[C@@H]1C[C@@H](O)CN1; NMeF = CN[C@@H](Cc1ccccc1)C(=O)O; NMeNle = CCCC[C@H](NC)C(=O)O; NMeV = CN[C@H](C(=O)O)C(C)C; dPip = O=C(O)[C@H]1CCCCN1; hSer = N[C@@H](CCO)C(=O)O; NMeA = CN[C@@H](C)C(=O)O; Orn = NCCC[C@H](N)C(=O)O; dThz = O=C(O)[C@H]1CSCN1; Dab = NCC[C@H](N)C(=O)O; Dap = NC[C@H](N)C(=O)O; ξC = NC(CS)C(=O)O
Biological target: T1, Human PD-L1/PD-1 (Homo sapiens, UniProt Q9NZQ7)
T1 construct: TVMV protease cleavage site (C); made in house; host or cells: HEK293T cells
T1 sequence (Q9NZQ7 with tags, fused parts or gaps): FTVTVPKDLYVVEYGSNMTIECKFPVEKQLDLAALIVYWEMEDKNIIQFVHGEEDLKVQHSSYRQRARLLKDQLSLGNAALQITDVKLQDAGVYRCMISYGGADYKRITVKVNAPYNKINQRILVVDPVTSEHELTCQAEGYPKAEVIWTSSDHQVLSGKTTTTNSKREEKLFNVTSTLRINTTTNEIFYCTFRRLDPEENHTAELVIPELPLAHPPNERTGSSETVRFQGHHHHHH
Assay: HTRF Human PD-L1/PD-1 binding assay (PD-1-Ig/PD-L1-His)
Conditions: PD-L1-His 10 nM, PD-1-Ig 20 nM
In short: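 Compound preincubated 15 min with PD-L1-His (10 nM final), then PD-1-Ig (20 nM final) added for 15 min in dPBS with 0.1% BSA and 0.05% Tween-20. Detection by Eu-cryptate anti-Ig (1 nM) and APC anti-His (20 nM) after 30 min; 665/620 nm HTRF ratio. Proteins expressed in HEK293T.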

[1] = class symbol, read-out: HTRF Human PD-L1/PD-1 Binding Assay IC50 Range

Compound | IC50 [1] | IC50 (read-out: HTRF Human PD-L1/PD-1 Binding Assay IC50)
CCCC[C@H]1C(=O)N(C)[C@@H](CCCC)C(=O)N[C@@H](C)C(=O)N[C@H](C(=O)NCC(N)=O)CSCC(=O)N[C@@H](Cc2ccc(O)cc2)C(=O)N(C)[C@@H](C)C(=O)N[C@@H](CC(N)=O)C(=O)N2CCC[C@H]2C(=O)N[C@@H](Cc2cnc[nH]2)C(=O)N[C@@H](CCC(N)=O)C(=O)N2CCOC[C@H]2C(=O)N[C@@H](Cc2c[nH]c3ccccc23)C(=O)N[C@@H](CO)C(=O)N[C@@H](Cc2c[nH]c3ccccc23)C(=O)N1C [Example 1279] | 10 to 99.9 nM | –
CCCC[C@H]1C(=O)N(C)[C@@H](CCCC)C(=O)N[C@@H](CC(C)C)C(=O)N[C@H](C(=O)NCC(N)=O)CSCC(=O)N[C@@H](Cc2ccc(O)cc2)C(=O)N(C)[C@@H](C)C(=O)N[C@@H](CC(N)=O)C(=O)N2CCC[C@H]2C(=O)N[C@@H](CN)C(=O)N[C@@H](CC(C)C)C(=O)N2CCC[C@H]2C(=O)N[C@@H](Cc2c[nH]c3ccccc23)C(=O)N[C@@H](CCN)C(=O)N[C@@H](Cc2ccc(O)cc2)C(=O)N1C [Example 6272] ({CH2CO}-Y[NMeA]NP[Dap]LPW[Dab]Y[NMeNle][NMeNle]LCG-NH2; thioether N-14) | 1 to 9.9 nM | –
CCCC[C@H]1C(=O)N(C)[C@@H](CCCC)C(=O)N[C@@H](CN)C(=O)N[C@H](C(=O)NCC(N)=O)CSCC(=O)N[C@@H](Cc2ccc(O)cc2)C(=O)N(C)[C@@H](C)C(=O)N[C@@H](CC(N)=O)C(=O)N2CCC[C@H]2C(=O)N[C@@H](Cc2c[nH]cn2)C(=O)N[C@@H](CCC(N)=O)C(=O)N2C[C@H](O)C[C@H]2C(=O)N[C@@H](Cc2c[nH]c3ccccc23)C(=O)N[C@@H](CCN)C(=O)N[C@@H](Cc2cn(CC(=O)O)c3ccccc23)C(=O)N1C [Example 5222] ({CH2CO}-Y[NMeA]NPHQ[Hyp]W[Dab][Trp(1-CH2COOH)][NMeNle][NMeNle][Dap]CG-NH2; thioether N-14) | – | 1000 nM
CCCC[C@H]1C(=O)N(C)[C@@H](CCCC)C(=O)N[C@@H](CC(C)C)C(=O)N[C@H](C(=O)NCC(N)=O)CSCC(=O)N[C@@H](Cc2ccc(O)cc2)C(=O)N(C)[C@@H](C)C(=O)N[C@@H](CC(N)=O)C(=O)N[C@H](C)C(=O)N[C@@H](Cc2cnc[nH]2)C(=O)N[C@@H](CCC(N)=O)C(=O)N2C[C@H](O)C[C@H]2C(=O)N[C@@H](Cc2c[nH]c3ccccc23)C(=O)N[C@@H](CO)C(=O)N[C@@H](Cc2c[nH]c3ccccc23)C(=O)N1C [Example 6262] ({CH2CO}-Y[NMeA]N[dA]HQ[Hyp]WSW[NMeNle][NMeNle]LCG-NH2; thioether N-14) | 1 to 9.9 nM | –
CCCC[C@H]1C(=O)N2CCC[C@@H]2C(=O)N[C@@H](CO)C(=O)N[C@@H](C(C)C)C(=O)N(C)[C@@H](Cc2ccccc2)C(=O)N[C@@H](Cc2ccc(O)cc2)C(=O)N2CCC[C@@H]2C(=O)N[C@@H](Cc2c[nH]c3ccccc23)C(=O)N[C@@H](Cc2ccc(O)cc2)C(=O)N[C@@H](CC(C)C)C(=O)N[C@H](C(=O)NCC(N)=O)CSCC(=O)N[C@@H](Cc2ccccc2)C(=O)N(C)[C@@H](Cc2ccccc2)C(=O)N1C [Example 10067] ({CH2CO}-F[NMeF][NMeNle][dP]SV[NMeF]Y[dP]WYLCG-NH2; thioether N-13) | 1 to 9.9 nM | –
CCCC[C@H]1C(=O)N(C)[C@@H](CCCC)C(=O)N[C@@H](CN)C(=O)N[C@H](C(=O)NCC(N)=O)CSCC(=O)N[C@@H](Cc2ccc(O)cc2)C(=O)N(C)[C@@H](C)C(=O)N[C@@H](CC(N)=O)C(=O)N2CCC[C@H]2C(=O)N[C@@H](CN)C(=O)N[C@@H](CCC(N)=O)C(=O)N2C[C@H](O)C[C@H]2C(=O)N[C@@H](Cc2c[nH]c3ccccc23)C(=O)N[C@@H](CCN)C(=O)N[C@@H](Cc2cn(CC(=O)O)c3ccccc23)C(=O)N1C [Example 5213] ({CH2CO}-Y[NMeA]NP[Dap]Q[Hyp]W[Dab][Trp(1-CH2COOH)][NMeNle][NMeNle][Dap]CG-NH2; thioether N-14) | 1 to 9.9 nM | –
CCCC[C@H]1C(=O)N2CCC[C@@H]2C(=O)N[C@@H](CC(=O)O)C(=O)N[C@@H](C(C)C)C(=O)N(C)[C@@H](C(C)C)C(=O)N[C@@H](CCC(N)=O)C(=O)N2CCCC[C@@H]2C(=O)N[C@@H](Cc2c[nH]c3ccccc23)C(=O)N[C@@H](Cc2ccc(O)cc2)C(=O)N[C@@H](CCCN)C(=O)N[C@H](C(=O)NCC(N)=O)CSCC(=O)N[C@@H](Cc2ccc(F)cc2)C(=O)N(C)[C@@H](Cc2ccccc2)C(=O)N1C [Example 9248] ({CH2CO}-[Phe(4-F)][NMeF][NMeNle][dP]DV[NMeV]Q[dPip]WY[Orn]CG-NH2; thioether N-13) | 1000 to 10000 nM | –
CCCC[C@H]1C(=O)N2CCC[C@@H]2C(=O)N[C@@H](CO)C(=O)N[C@@H](C(C)C)C(=O)N(C)[C@@H](Cc2ccccc2)C(=O)N[C@@H](Cc2ccc(O)cc2)C(=O)N2CSC[C@@H]2C(=O)N[C@@H](Cc2c[nH]c3ccccc23)C(=O)N[C@@H](Cc2ccc(O)cc2)C(=O)N[C@@H](CC(C)C)C(=O)N[C@H](C(=O)NCC(N)=O)CSCC(=O)N[C@@H](Cc2ccccc2)C(=O)N(C)[C@@H](Cc2ccccc2)C(=O)N1C [Example 10070] ({CH2CO}-F[NMeF][NMeNle][dP]SV[NMeF]Y[dThz]WYLCG-NH2; thioether N-13) | 10 to 99.9 nM | –
CCCC[C@H]1C(=O)N2CCC[C@@H]2C(=O)N[C@@H](CC(=O)O)C(=O)N[C@@H](C(C)C)C(=O)N(C)[C@@H](Cc2ccccc2)C(=O)N[C@@H](CCC(=O)O)C(=O)N2CCCC[C@@H]2C(=O)N[C@@H](Cc2c[nH]c3ccccc23)C(=O)N[C@@H](Cc2ccc(O)cc2)C(=O)N[C@@H](CCCCN)C(=O)N[C@H](C(=O)NCC(N)=O)CSCC(=O)N[C@@H](Cc2cc(F)c(F)c(F)c2)C(=O)N(C)[C@@H](Cc2ccc(F)cc2)C(=O)N1C [Example 10564] ({CH2CO}-[Phe(3,4,5-F3)][NMePhe(4-F)][NMeNle][dP]DV[NMeF]E[dPip]WYKCG-NH2; thioether N-13) | 1 to 9.9 nM | –
CCCC[C@H]1C(=O)N(C)[C@@H](CCCC)C(=O)N[C@@H](CCCNC(=N)N)C(=O)NC(C(=O)NCC(N)=O)CSCC(=O)N[C@@H](Cc2ccc(O)cc2)C(=O)N(C)[C@@H](C)C(=O)N[C@@H](CC(N)=O)C(=O)N2CCC[C@H]2C(=O)N[C@@H](CO)C(=O)N[C@@H](CCO)C(=O)N2CCC[C@H]2C(=O)N[C@@H](Cc2c[nH]c3ccccc23)C(=O)N[C@@H](CCO)C(=O)N[C@@H](Cc2c[nH]c3ccccc23)C(=O)N1C (stereo partly drawn) [Example 10051] ({CH2CO}-Y[NMeA]NPS[hSer]PW[hSer]W[NMeNle][NMeNle]R[ξC]G-NH2; thioether N-14) | 1 to 9.9 nM | –
CCCC[C@H]1C(=O)N(C)[C@@H](CCCC)C(=O)N[C@@H](CCCNC(=N)N)C(=O)NC(C(=O)NCC(N)=O)CSCC(=O)N[C@@H](Cc2ccc(O)cc2)C(=O)N(C)[C@@H](C)C(=O)N[C@@H](CC(N)=O)C(=O)N2CCC[C@H]2C(=O)N[C@@H](CC(N)=O)C(=O)N[C@@H](CC(N)=O)C(=O)N2CCC[C@H]2C(=O)N[C@@H](Cc2c[nH]c3ccccc23)C(=O)N[C@@H](CO)C(=O)N[C@@H](Cc2csc3ccccc23)C(=O)N1C (stereo partly drawn) [Example 10042] ({CH2CO}-Y[NMeA]NPNNPWS[Bta][NMeNle][NMeNle]R[ξC]G-NH2; thioether N-14) | 10 to 99.9 nM | –
CCCC[C@H]1C(=O)N(C)[C@@H](CCCC)C(=O)N[C@@H](CCC(=O)O)C(=O)NC(C(=O)NCC(N)=O)CSCC(=O)N[C@@H](Cc2ccc(O)cc2)C(=O)N(C)[C@@H](C)C(=O)N[C@@H](CC(N)=O)C(=O)N2CCC[C@H]2C(=O)N[C@@H](CC(N)=O)C(=O)N[C@@H](CC(C)C)C(=O)N2C[C@H](O)C[C@H]2C(=O)N[C@@H](Cc2c[nH]c3ccccc23)C(=O)N[C@@H](CN)C(=O)N[C@@H](Cc2c[nH]c3ccccc23)C(=O)N1C (stereo partly drawn) [Example 9177] ({CH2CO}-Y[NMeA]NPNL[Hyp]W[Dap]W[NMeNle][NMeNle]E[ξC]G-NH2; thioether N-14) | 100 to 990 nM | –
